What was measured:
[1] = Oxidation stability on storage (QH residual rate by HPLC); format: physicochemical
Protocol: The weight ratio of reduced coenzyme Q10 to total coenzyme Q10 (namely, reduced coenzyme Q10/(oxidized coenzyme Q10+reduced coenzyme Q10)) is defined as “QH ratio”. The QH ratio was determined by the following HPLC analysis. For the evaluation of oxidation stability, a rate of the change in the QH ratio at the end of the evaluation from that at the beginning of the evaluation was defined as “QH residual rate”, and the QH residual rate determined from the following expression was used as a measure of oxidation stability.
QH residual rate (%)=100×QH ratio at the end of the evaluation/QH ratio at the beginning of the evaluation
• Column: SYMMETRY C18 (manufactured by Waters); 250 mm (length), 4.6 mm (inner diameter) • Mobile phase: C2H5OH: CH3OH=4:3 (v:v) • Detection wavelength: 210 nm • Flow rate: 1 mL/min

[2] = Water activity measurement (AquaLab Series 4TE); format: physicochemical; details: water activity in packaged body with controlled internal relative humidity
Protocol: The water activity was measured with AquaLab Series 4TE (METER Group Inc.). A sample having a volume of about 5 ml in a sample dish was placed in AquaLab Series 4TE, and the water activity at 25° C. was measured.

[3] = stored 2 weeks at 40° C., 0.2 g in opened state in packaged body of controlled relative humidity (11% or 48%)

QH residual rate (%) [1, 3] [%]	Water activity [2]	Molecule	QH residual rate (%) ([1]; stored 2 weeks at 40° C. and relative humidity 75%, 0.2 g in sealed container, internal relative humidity 48%)	QH residual rate (%) ([1]; stored 4 weeks at 40° C. and relative humidity 75%, 0.2 g in sealed container, internal relative humidity 48%)
–	–	COc1c(O)c(C)c(C/C=C(\C)CC/C=C(\C)CC/C=C(\C)CC/C=C(\C)CC/C=C(\C)CC/C=C(\C)CC/C=C(\C)CC/C=C(\C)CC/C=C(\C)CCC=C(C)C)c(O)c1OC [Comparative Example 2, reduced coenzyme Q10]	37.2	–
82.6	0.48	co-crystal composed of QH and nicotinamide [Comparative Example 3]	–	–
94.7	0.11	co-crystal composed of QH and nicotinamide [Example 5]	–	–

Molecule	QH residual rate (%) [1, 3] [%]	Water activity [2]	QH residual rate (%) ([1]; stored 2 weeks at 40° C. and relative humidity 75%, 0.2 g in sealed container, internal relative humidity 48%)	QH residual rate (%) ([1]; stored 4 weeks at 40° C. and relative humidity 75%, 0.2 g in sealed container, internal relative humidity 48%)
COc1c(O)c(C)c(C/C=C(\C)CC/C=C(\C)CC/C=C(\C)CC/C=C(\C)CC/C=C(\C)CC/C=C(\C)CC/C=C(\C)CC/C=C(\C)CC/C=C(\C)CCC=C(C)C)c(O)c1OC [Comparative Example 1, reduced coenzyme Q10]	–	0.48	–	82.1

Reference: patent US20250059124A1, “METHOD FOR STORING REDUCED COENZYME Q10” (KANEKA CORPORATION, priority 2021, published 2025)
